Counter-ions that a name gives are not always drawn. Like-named read-outs stand apart in the source and are kept apart here. Peptide text beside a SMILES is read from it. * marks the point of attachment. Cbz = O=C(OCc1ccccc1)*
Assays:
ARID1A-KO HCT116 cells = experiment: Drug library screen, cell viability (CellTiter-Glo); assay type: cell-based, human; conditions: Homo sapiens, HCT-116, 120 h, read-out: Cell viability, KO
Summary of the method: (§1)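 ARID1A-WT and ARID1A-KO HCT116 cells screened against the library; viability read after 5 days by CellTiter-Glo luminescence, expressed relative to DMSO-treated cells. Hits: KO viability below 40% with WT viability above 80%.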

[1] = as above; assay type: cell-based, human; conditions: human
Summary of the method: as §1

[2] = HCT116 ARID1A-KO, 10 μM for 5 days, relative to cells treated with solvent (DMSO)
[3] = HCT116 ARID1A-WT, 10 μM for 5 days, relative to cells treated with solvent (DMSO), read-out: Cell viability, WT

SMILES | viability at 10 µM (ARID1A-KO HCT116 cells; [2]) | viability at 5 days, 10 μM [1, 3] | viability [1, 3] | viability at 10 µM (ARID1A-KO HCT116 cells) | viability at 5 days, 10 μM [1]
O=c1cc(-c2ccccc2)oc2cc(O)c(O)c(O)c12 [Baicalein] | 93.7% | 94.6% | – | – | –
NC(=O)c1ccccc1 [Benzamide] | 134% | 188% | – | – | –
CC(C)C[C@H](NC(=O)[C@@H](O)[C@H](N)Cc1ccccc1)C(=O)O [Bestatin] | 66.2% | 68.6% | – | – | –
Cc1c[nH]c(-c2cnc(NCCNc3ccc(C#N)cn3)nc2-c2ccc(Cl)cc2Cl)n1 [CT99021] | 73.5% | 63.8% | – | – | –
CC[C@@]1(O)C(=O)OCc2c1cc1n(c2=O)Cc2cc3ccccc3nc2-1 [Camptothecin] | 4.03% | 2.97% | – | – | –
C[C@@]12C(=O)OC(=O)[C@]1(C)[C@H]1CC[C@@H]2O1 [Cantharidin] | 18.2% | – | 26.2% | – | –
C/C=C/C/C=C/CCC(=O)[C@H]1O[C@H]1C(N)=O [Cerulenin] | 68.6% | 70% | – | – | –
CN1C(=O)[C@]2(Cc3cn([C@]45C[C@@]67SS[C@@](CO)(C(=O)N6[C@H]4Nc4ccccc45)N(C)C7=O)c4ccccc34)SS[C@@]1(CO)C(=O)N2C [Chetomin] | 4.69% | – | 4.21% | – | –
CCOC(=O)C(C)(C)Oc1ccc(Cl)cc1 [Clofibrate] | 111% | 110% | – | – | –
C[C@@H]1C[C@@H]([C@H](O)CC2CC(=O)NC(=O)C2)C(=O)[C@@H](C)C1 [Cycloheximide] | 10.1% | – | 9.33% | – | –
COc1c(C=O)c(O)cc2c1C(=O)c1ccccc1C2=O [Damnacanthal] | 138% | 185% | – | – | –
COc1cccc2c1C(=O)c1c(O)c3c(c(O)c1C2=O)C[C@@](O)(C(C)=O)C[C@@H]3O[C@H]1C[C@H](N)[C@H](O)[C@H](C)O1 [Daunorubicin, HCl] | – | 5.21% | – | 4.45% | –
NC1=N/C(=C2/CCNC(=O)c3[nH]ccc32)C(=O)N1 [Debromohymenialdisine (DBH), Debromohymenialdisine] | 72.2% | 62.9% | – | – | –
Nc1ncn([C@H]2C[C@H](O)[C@@H](CO)O2)c(=O)n1 [Decitabine] | 30.4% | 30.8% | – | – | –
CCCCCCCCCCC1=C(C)C(=O)C(OC)=C(OC)C1=O [Decylubiquinone] | 100% | 85.7% | – | – | –
OC[C@H]1NC[C@H](O)[C@@H](O)[C@@H]1O [Deoxynojirimycin] | 121% | 106% | – | – | –
CN(N=O)c1cc(O)ccc1O [Dephostatin] | 60.2% | – | 90.4% | – | –
Cc1cc(N)c2ccccc2[n+]1CCCCCCCCCC[n+]1c(C)cc(N)c2ccccc21 [Dequalinium] | 5.24% | 6.38% | – | – | –
C[C@@H]1C[C@H]2[C@@H]3CCC4=CC(=O)C=C[C@]4(C)[C@@]3(F)[C@@H](O)C[C@]2(C)[C@@]1(O)C(=O)CO [Dexamethasone] | 162% | 212% | – | – | –
O=c1c2ccccc2[nH]c(=S)n1CCN1CCC(=C(c2ccc(F)cc2)c2ccc(F)cc2)CC1 [Diacylglycerol kinase inhibitor II] | 171% | 141% | – | – | –
CC1=NS(=O)(=O)c2cc(Cl)ccc2N1 [Diazoxide] | 115% | 103% | – | – | –
COc1ccc([C@@H]2Sc3ccccc3N(CCN(C)C)C(=O)[C@@H]2OC(C)=O)cc1 [Diltiazem] | 115% | 102% | – | – | –
COc1cccc2c1C(=O)c1c(O)c3c(c(O)c1C2=O)C[C@@](O)(C(=O)CO)C[C@@H]3O[C@H]1C[C@H](N)[C@H](O)[C@H](C)O1 [Doxorubicin, HCl] | 4.14% | 4.81% | – | – | –
Cc1cc(Nc2cc(N3CCN(C)CC3)nc(/C=C/c3ccccc3)n2)n[nH]1 [ENMD-2076] | 10.1% | 9.16% | – | – | –
O=c1oc2c(O)c(O)cc3c(=O)oc4c(O)c(O)cc1c4c23 [Ellagic acid] | 161% | 127% | – | – | –
COc1cc([C@@H]2c3cc4c(cc3[C@@H](O[C@@H]3O[C@@H]5CO[C@@H](C)O[C@H]5[C@H](O)[C@H]3O)[C@H]3COC(=O)[C@H]23)OCO4)cc(OC)c1O [Etoposide (VP-16), Etoposide] | 27.4% | 30.6% | – | – | –
C=CC[C@@H]1/C=C(\C)C[C@H](C)C[C@H](OC)[C@H]2O[C@@](O)(C(=O)C(=O)N3CCCC[C@H]3C(=O)O[C@H](/C(C)=C/[C@@H]3CC[C@@H](O)[C@H](OC)C3)[C@H](C)[C@@H](O)CC1=O)[C@H](C)C[C@@H]2OC [FK-506] | 130% | 173% | – | – | –

SMILES | viability at 10 µM (ARID1A-KO HCT116 cells; [2]) | viability at 5 days, 10 μM [1, 3] | viability [1, 3] | viability at 10 µM (ARID1A-KO HCT116 cells) | viability at 5 days, 10 μM [1]
CC(C)(C)NC(=O)[C@H]1CC[C@H]2[C@@H]3CC[C@H]4NC(=O)C=C[C@]4(C)[C@H]3CC[C@]12C [Finasteride] | 108% | 99.6% | – | – | –
CC(C)C(=O)Nc1ccc([N+](=O)[O-])c(C(F)(F)F)c1 [Flutamide] | 126% | 163% | – | – | –
C[C@]12CCC(=O)C(O)=C1CC[C@@H]1[C@@H]2CC[C@]2(C)C(=O)CC[C@@H]12 [Formestane] | 69.5% | – | 108% | – | –
CO[C@@H]1[C@H](OC(=O)/C=C/C=C/C=C/C=C/C(=O)O)CC[C@]2(CO2)[C@H]1[C@@]1(C)O[C@@H]1CC=C(C)C [Fumagillin] | – | 96.4% | – | 82.2% | –
CNC(=O)[C@H](Cc1c[nH]c2ccccc12)NC(=O)[C@@H](CC(=O)NO)CC(C)C [GM 6001] | 123% | 188% | – | – | –
O=c1c(-c2ccc(O)cc2)coc2cc(O)cc(O)c12 [Genistein] | 118% | – | 173% | – | –
COc1ccc(Cl)cc1C(=O)NCCc1ccc(S(=O)(=O)NC(=O)NC2CCCCC2)cc1 [Glibenclamide] | 109% | 108% | – | – | –
O=S(=O)(c1cccc2cnccc12)N1CCCNCC1 [HA1077] | 73.8% | 155% | – | – | –
NC(=O)NO [Hydroxyurea] | 117% | 157% | – | – | –
C[C@H](CCC(=O)O)C[C@H](C)C[C@H](C)C(=O)/C=C(\O)[C@H](C)C[C@H](C)C/C=C/[C@@H](C)[C@@H](O)[C@@H](C)[C@@H](O)C[C@@H]1CC[C@@](C)([C@H]2CC[C@@](C)([C@@H](C)O)O2)O1 [Ionomycin] | 35.9% | – | 31.8% | – | –
CC1=C2C(=O)[C@H]3[C@@H](CC=C4C[C@@H](O)CC[C@@]43C)[C@@H]2CC[C@]12O[C@@H]1C[C@H](C)CN[C@H]1[C@H]2C [Jervine] | 90.1% | – | 74.4% | – | –
O=C1Cc2c([nH]c3ccc(Br)cc23)-c2ccccc2N1 [Kenpaullone] | 35% | 66.2% | – | – | –
CC(=O)N[C@@H](CSC(=O)[C@]1([C@@H](O)C(C)C)NC(=O)[C@H](C)[C@@H]1O)C(=O)O [Lactacystin] | 26.1% | 32.6% | – | – | –
O=C(O)c1nn(Cc2ccc(Cl)cc2Cl)c2ccccc12 [Lonidamine] | 116% | 98.4% | – | – | –
CC[C@H](C)C(=O)O[C@H]1C[C@@H](C)C=C2C=C[C@H](C)[C@H](CC[C@@H]3C[C@@H](O)CC(=O)O3)[C@H]21 [Lovastatin] | 85.2% | 132% | – | – | –
CNC(=O)c1ccc(N2C(=S)N(c3ccc(C#N)c(C(F)(F)F)c3)C(=O)C2(C)C)cc1F [MDV3100] | 94.9% | 88.8% | – | – | –
CC(C)C[C@@H](C=O)NC(=O)[C@H](CC(C)C)NC(=O)[C@H](CC(C)C)NC(=O)OCc1ccccc1 [MG-132] (Cbz-Leu-Leu-Leu-aldehyde) | 2.45% | – | 3.45% | – | –
NC(=O)c1cccc2cn(-c3ccc([C@@H]4CCCNC4)cc3)nc12 [MK-4827 (Niraparib), Niraparib] | 28.7% | 29.3% | – | – | –
COc1cc(Nc2ncc3c(n2)-c2ccc(Cl)cc2C(c2c(F)cccc2OC)=NC3)ccc1C(=O)O [MLN8237] | 39.1% | 36.8% | – | – | –
CN(Cc1cnc2nc(N)nc(N)c2n1)c1ccc(C(=O)N[C@@H](CCC(=O)O)C(=O)O)cc1 [Methotrexate] | 43.9% | 43% | – | – | –
CC#C[C@]1(O)CC[C@H]2[C@@H]3CCC4=CC(=O)CCC4=C3[C@@H](c3ccc(N(C)C)cc3)C[C@@]21C [Mifepristone] | 85.3% | 95.9% | – | – | –
CCOC(=O)C1=C(C)NC(=S)NC1c1cccc(O)c1 (stereo not drawn) [Monastrol] | 104% | 102% | – | – | –
CC[C@@]1([C@@H]2O[C@@H]([C@H]3O[C@@](O)(CO)[C@H](C)C[C@@H]3C)C[C@@H]2C)CC[C@H]([C@]2(C)CC[C@]3(C[C@H](O)[C@@H](C)[C@@H]([C@@H](C)[C@@H](OC)[C@H](C)C(=O)O)O3)O2)O1 [Monensin] | – | – | – | 3.95% | 3.45%
CC(=O)N[C@@H](CS)C(=O)O [N-Acetyl-L-cysteine] | 139% | 186% | – | – | –
O=C(O)c1ccccc1Nc1ccccc1 [N-phenylanthranilic acid] | 118% | 101% | – | – | –
CS(=O)(=O)Nc1ccc([N+](=O)[O-])cc1OC1CCCCC1 [NS-398] | – | 177% | – | 142% | –
CCn1cc(C(=O)O)c(=O)c2ccc(C)nc21 [Nalidixic acid] | 97.5% | 102% | – | – | –

Reference: patent publication US20220087987A1, “A METHOD FOR TREATING SWI/SNF COMPLEX-DEFICIENT CANCERS COMPRISING GLUTATHIONE (GSH) METABOLIC PATHWAY INHIBITOR” (National Cancer Center, priority 2018, published 2022)
